# In patent US20130115257A1, “COMPOSITIONS AND METHODS FOR REMOVAL OR DESTRUCTION OF AMYLOID FIBRIL OR AMYLOID ADHESIN COMPRISING AGGREGATES” (KATHOLIEKE UNIVERSITEIT LEUVEN, priority 2010, published 2013):
# Entries after “also recorded” stand apart in the source; their conditions may differ. Where a name gives a salt, the structure may show the parent alone.
# Key:
# [1] = test system: Congo Red-amyloid fibril complex (insulin fibrils); assay: AFM of Congo Red-amyloid fibril complex after incubation with metal ions or colloids (fibril disintegration); conditions: CR-stained insulin fibrils, 5 mmol/L silver ions, 15 minutes; for disintegration of the dye-amyloid fibers (AFM image): rinsed and dried
# Procedure: (§1) Amyloid fibrils from the insulin hormone were obtained by dissolving insulin (3.5 mmol/L) in water adjusted to pH 2 with HCl and heated to 70° C. for 2 hours. Samples were diluted to a concentration of 7 μmol/L at room temperature and transferred to a piranha (4:1, H2SO4:H2O2) cleaned naturally oxidized silicon wafer. After 15 minutes of incubation the silicon surface was rinsed with water. The amyloid fibers on the silicon surface are then incubated with a 140 μmol/L solution of CR in water during 2 hours and successively rinsed with water.
# The predominant particles are soluble dimers and higher order aggregates with the hydrophobic regions sequestered from the aqueous environment (D. Watson et al., Neurological Research 27, 869-881 (2005)). The soluble oligomeric amyloid-beta peptides are the principal constituent of amyloid deposits such as plaques and intraneuronal tangles.
# The positively charged metal ions bind to the negatively charged sulfonate groups of the dye and interfere with the electrostatic bond between the negatively charged group of the CR molecule and the basic amino acid side chain of the fibril. This way the dye-peptide bond is disrupted at the monomer level, which causes the disintegration of the fibril. Our in vitro study points out that neurodegenerative disorders can be treated by negatively charged molecules, like CR which intercalate between the amyloid β-strands and induce a destabilization of the CR-fibril complex when metallic ions such as silver ions are introduced.
# [2] = test system: amyloid fibrils from insulin; assay: Atomic force microscopy of insulin amyloid fibrils incubated with Congo red; assay type: binding; conditions: 140 μmol/L CR in water, 2 hours, fibrils on silicon surface
# Procedure: as §1
# insulin fibrils = assay: Fluorescence microscopy of dye-amyloid fibril complexes; assay type: binding; conditions: insulin fibrils incubated with CR
# Description: The dye-amyloid fibril complexes were also imaged with fluorescence microscopy, as CR is a fluorophore. […] Bright contrast in the fluorescence images corresponds to the presence of the fluorophore on the insulin fibrils, which themselves are not fluorescent.
# [3] = water; organic solvents such as ethanol; cited from earlier work
Molecule,disintegration of the dye-amyloid fibers (AFM image) [1],average cross section of the dye-amyloid fiber (AFM) [2],presence of the fluorophore on the insulin fibrils (fluorescence images) (insulin fibrils),solubility [3],heights of the particles left after disintegration (AFM) [1]
"Nc1c(/N=N/c2ccc(-c3ccc(/N=N/c4cc(S(=O)(=O)O)c5ccccc5c4N)cc3)cc2)cc(S(=O)(=O)O)c2ccccc12 [Congo red, sodium salt of benzidinediazo-bis-1-naphthylamine-4-sulfonic acid]",total disintegration of the amyloid fibrils into peptide monomers,same dimension as in the absence of CR,bound or intercalated evenly in the insulin fibrils,water soluble; also recorded: solubility is better in organic solvents such as ethanol,
silver ions,total disintegration,,,,1-2 nm
